# According to US5223178A (priority 1990, dated 1993):
# Read-outs that look alike come from different tables or passages of the source.
# Columns and labels:
# [1] = system: Aspergillus niger; test: Paint film mildewcide popsickle stick test, Table 6; details: A. niger, 10 days, 30° C., 95% RH
# Protocol: (§1) Testing is described below.
# (§2) Testing was done in a commercial acrylic-based latex paint with conventional pigments, dispersants, and the like. Texanol (R) is trimethyl-1,3-pentanediol monisobutyrate supplied by Eastman Chemical. "Latex" is a latex of a copolymer of butyl acrylate and methyl methacrylate.
# (§3) To a sealable container was charged 100 parts of the paint formulation and the desired triazole concentration. The sample was homogenized for 15 minutes each, then blended and remixed.
# (§4) Three triazoles were evaluated for their effectiveness as paint film mildewcides at […] and 10 lbs/100 gallons in a laboratory popsickle stick test. Untreated controls were included in the test.
# (§5) Duplicate popsickle sticks painted with the treated and untreated paint sample were inoculated with Aureobasidium pullulans and Aspergillus niger. The sticks were inoculated for 10 days at 30° C. and 95% RH and samples were rated for fungal growth.
# [2] = system: Aureobasidium pullulans; test: as above; details: A. pullulans, 10 days, 30° C., 95% RH
# Protocol: as §1, §2, §3, §4, §5
# [3] = system: Piricularia oryzae; test: microbe, parasite or virus in culture; type: cell-based; details: 72 h
# [4] = system: Cladisporium resinae; test: PDA plate mycelial radial growth inhibition (paint film mildew fungi), Table 2; type: cell-based; details: read-out: EC50 (concentration giving 50% control of hyphal growth)
# Protocol: (§6) The test was run as follows. Potato dextrose agar (PDA) was dissolved in water (30 g PDA/1) and autoclaved at 15 psi for 15 minutes. PDA was purchased from Difco. Triazoles were dissolved in a small quantity of methanol and added to autoclaved, molten potato dextrose agar in a dilution series to give 0.01, 0.1, 1, 10 and 100 ug ml^-1. Final methanol content of the highest dose was included. The molten agar was pipetted into Petri plates (15 ml per plate) and allowed to set. Two 5 mm mycelial plugs were removed from mother cultures of each of the fungal species tested, and were placed near the edge of the test plates. When colonies were 10-40 mm in diameter, the radial mycelial growth was measured and EC75 values were determined on log-probit paper.
# (§7) EC50 values (concentration giving 50% control of hyphal growth) are reported.
# [5] = system: Aspergillus flavus; test: as above; type: cell-based; details: read-out: EC50 (concentration giving 50% control of hyphal growth)
# Protocol: as §6, §7
# [6] = system: Poria placenta; test: Wood decay fungi radial growth inhibition on PDA, Table 7; type: cell-based; details: room temperature, read-out: EC50 (concentration giving 50% control of hyphal growth)
# Protocol: (§8) The test was run as follows. Potato dextrose agar (PDA) was dissolved in water (39 g/l) and autoclaved at 15 psi for 15 min. PDA was purchased from Difco. The triazole was dissolved in a small quantity of dimethylsulfoxide (DMSO) and diluted to appropriate concentrations with the same solvent. Ten microliters of the appropriate solution was added to each of five wells of a Falcon 6 well tissue culture dish. To the sixth well was added ten microliters of DMSO as a control. Five ml of molten PDA was then added to each of the wells to give […] μg ml-1 of triazole. The plate was gently agitated to afford a uniform mixture. Upon cooling, the dishes were inoculated with a six mm agar plug from a freshly grown culture of the test organism. The assay plates were then incubated at room temperature and evaluated when the radial growth in the control well had reached approximately 30 mm. The radial growth for the treated wells was measured and the growth inhibition and EC50 values were calculated using non-linear regression analysis. Data are shown in Table 7 for triazoles VIII and IX (Table). EC50 values (concentration giving 50% control of hyphal growth) are reported.
# [7] = system: Gloeophyllum tradeum; test: as above; type: cell-based; details: read-out: EC50 (concentration giving 50% control of hyphal growth)
# Protocol: as §8
# [8] = system: Phialophora mutabilis; test: as above; type: cell-based; details: Coniochaeta mutabilis, room temperature, read-out: EC50 (concentration giving 50% control of hyphal growth)
# Protocol: as §8
# [9] = system: Trametes Versicolor; test: as above; type: cell-based; details: room temperature, read-out: EC50 (concentration giving 50% control of hyphal growth)
# Protocol: as §8
# [10] = system: Aureobasidum pullulans; test: PDA plate mycelial radial growth inhibition (paint film mildew fungi), Table 2; type: cell-based; details: read-out: EC50 (concentration giving 50% control of hyphal growth)
# Protocol: as §6, §7
# [11] = system: Alternaria solani; test: PDA plate mycelial radial growth inhibition (paint film mildew fungi), Table 1; type: cell-based; details: PDA plates, read-out: EC75 (concentration giving 75% control of hyphal growth)
# Protocol: as §6
# EC75 values (concentration giving 75% control of hyphal growth) are reported.
# [12] = pH 3.5, read-out: EC90 for mycelial growth
# [13] = pH 4.8, read-out: EC90 for mycelial growth
# [14] = pH 5.4, read-out: EC90 for mycelial growth
# [15] = pH 6.3, read-out: EC90 for mycelial growth
# [16] = pH 7.2, read-out: EC90 for mycelial growth
# [17] = pH 7.7, read-out: EC90 for mycelial growth
# [18] = pH 8.7, read-out: EC90 for mycelial growth
# [19] = pH 9.8, read-out: EC90 for mycelial growth
# [20] = pH 11.2, read-out: EC90 for mycelial growth
SMILES,"Fungal growth rating ([1]; replicate 1, 1 lbs/100 gal)","Fungal growth rating ([1]; replicate 1, 5 lbs/100 gal)","Fungal growth rating ([1]; replicate 1, 10 lbs/100 gal)","Fungal growth rating ([1]; replicate 2, 1 lbs/100 gal)","Fungal growth rating ([2]; replicate 1, 1 lbs/100 gal)","Fungal growth rating ([2]; replicate 2, 1 lbs/100 gal)","EC90 [3, 12] [µg/mL]","EC90 [3, 13] [µg/mL]","EC90 [3, 14] [µg/mL]","EC90 [3, 15] [µg/mL]","EC90 [3, 16] [µg/mL]","EC90 [3, 17] [µg/mL]","EC90 [3, 18] [µg/mL]","EC90 [3, 19] [µg/mL]","EC90 [3, 20] [µg/mL]",EC50 [4] [µg/mL],EC50 [5] [µg/mL],EC50 [6] [µg/mL],EC50 [7] [µg/mL],EC50 [8] [µg/mL],also measured
"CCCCC(C#N)(Cn1cncn1)c1ccc(Cl)cc1 (stereo not drawn) [II, α-n-butyl-α-4-chlorophenyl-1H-1,2,4-triazole-1-propanenitrile]",3+,2+,1+,2+,3+,4+,5,4.5,4.5,4.5,4.5,4.5,5,4.5,4.5,,,,,,"Fungal growth rating ([2]; replicate 1, 5 lbs/100 gal): 2+; Fungal growth rating ([2]; replicate 1, 10 lbs/100 gal): 2+; Fungal growth rating ([2]; replicate 2, 5 lbs/100 gal): 2+; Fungal growth rating ([2]; replicate 2, 10 lbs/100 gal): 1+"
"N#CC(CCc1ccc(Cl)cc1)(Cn1cncn1)c1ccccc1 (stereo not drawn) [Structure VIII, α-[2-(4-chlorophenyl)ethyl]-α-phenyl-1H-1,2,4-triazole-1-propanenitrile]",,,,,,,,,,,,,,,,0.025,3.5,0.175,0.158,0.612,EC50 [9]: 0.061 µg/mL
"CCCCC(C#N)(Cn1cncn1)c1ccc(Cl)cc1 (stereo not drawn) [Structure IX, α-n-butyl-α-4-chlorophenyl-1H-1,2,4-triazole-1-propanenitrile]",,,,,,,,,,,,,,,,1.7,1.2,0.228,0.313,1.45,EC50 [10]: 0.5 µg/mL; EC50 [9]: 0.118 µg/mL
"N#CC(CCc1ccc(Cl)cc1)(Cn1cncn1)c1ccccc1 (stereo not drawn) [I, α-[2-(4-chlorophenyl)ethyl]-α-phenyl-1H-1,2,4-triazole-1-propanenitrile]",4+,4+,3+,4+,2+,2+,0.5,0.1,0.1,0.1,0.1,0.1,0.1,0.1,0.1,,,,,,"Fungal growth rating ([1]; replicate 2, 5 lbs/100 gal): 3+; Fungal growth rating ([1]; replicate 2, 10 lbs/100 gal): 3+; EC75 [11]: 5 µg/mL"
